Data as given in paper PMC3252702 (ChemMedChem, 2010).

Columns and labels:
HsCDK2 = HsCDK2 (Homo sapiens, UniProt P24941); test: biochemical
EtCRK2 = EtCRK2 (Eimeria tenella, UniProt Q6R8F0); test: TR-FRET; format: biochemical
[1] = system: E. tenella schizont development; test: Schizont maturation assay; format: cell-based, Eimeria tenella; conditions: n=2

Chain of EtCRK2 (Q6R8F0 1-296): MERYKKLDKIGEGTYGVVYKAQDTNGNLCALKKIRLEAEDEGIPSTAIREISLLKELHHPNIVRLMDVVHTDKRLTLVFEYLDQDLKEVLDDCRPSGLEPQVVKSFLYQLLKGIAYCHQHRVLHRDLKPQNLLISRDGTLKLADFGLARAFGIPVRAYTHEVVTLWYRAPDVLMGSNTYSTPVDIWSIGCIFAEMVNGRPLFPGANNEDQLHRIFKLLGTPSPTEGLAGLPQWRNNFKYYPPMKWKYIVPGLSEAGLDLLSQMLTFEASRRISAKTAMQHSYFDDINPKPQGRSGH

| IC50 (HsCDK2) | Ki (HsCDK2) | IC50 (EtCRK2) | Ki (EtCRK2) | SMILES | inhibition of E. tenella schizont development ([1]; 150 nM) | inhibition of E. tenella schizont development ([1]; 300 nM) | inhibition of E. tenella schizont development ([1]; concentrations below 80 nM) |
| --- | --- | --- | --- | --- | --- | --- | --- |
| 26 ± 19 µM | 17 ± 8 µM | 23 ± 14 µM | 16 ± 9 µM | O=C(O)CN1C(=O)/C(=C2\SC(=S)NC2=O)c2ccccc21 [BES062021, 2-[(3Z)-2-oxo-3-(4-oxo-2-thioxo-thiazolidin-5-ylidene)indolin-1-yl]acetic acid] |  |  |  |
| 12 ± 7 µM | 2 ± 1 µM | 36 ± 8 µM | 6 ± 2 µM | CCN(CC)S(=O)(=O)c1ccc2c3c(cccc13)C(=O)N2 [BES143551, N,N-diethyl-2-oxo-1,2-dihydrobenzo[cd]indole-6-sulfonamide] |  |  |  |
|  |  | 61 ± 27 µM | 83 ± 29 µM | Cc1c(CCC(=O)O)c(=O)n2c([nH]c3ccccc32)c1C#N [BES241415, 3-(4-cyano-3-methyl-1-oxo-5H-pyrido[1,2-a]benzimidazol-2-yl)propanoic acid] |  |  |  |
| 35 ± 3 µM | 8 ± 2 µM | 15 ± 3 µM | 8 ± 2 µM | O=C1NC(=Nc2nc3cc([N+](=O)[O-])ccc3[nH]2)NC1=O [BES252034, 2-[(5-nitro-1H-benzimidazol-2-yl)imino]imidazolidine-4,5-dione] |  |  |  |
|  |  |  |  | CN1CC[C@H](c2c(O)cc(O)c3c(=O)cc(-c4ccccc4Cl)oc23)[C@H](O)C1 [Flavopiridol, 2-(2-Chlorophenyl)-5,7-dihydroxy-8-[(3S,4R)-3-hydroxy-1-methyl-4-piperidinyl]-4H-1-benzopyran-4-one] | fully inhibited | fully inhibited | no inhibitory effects |
